Experimental data published in US20240083853A1, “HSD17B13 INHIBITORS AND USES THEREOF” (FL2022-001, Inc., priority 2020, published 2024).
pIC50: −log10 of the molar value.

Target: T1, Recombinant human HSD17B13 enzyme (Homo sapiens, UniProt Q7Z5P4)
T1 sequence (Q7Z5P4 20-300): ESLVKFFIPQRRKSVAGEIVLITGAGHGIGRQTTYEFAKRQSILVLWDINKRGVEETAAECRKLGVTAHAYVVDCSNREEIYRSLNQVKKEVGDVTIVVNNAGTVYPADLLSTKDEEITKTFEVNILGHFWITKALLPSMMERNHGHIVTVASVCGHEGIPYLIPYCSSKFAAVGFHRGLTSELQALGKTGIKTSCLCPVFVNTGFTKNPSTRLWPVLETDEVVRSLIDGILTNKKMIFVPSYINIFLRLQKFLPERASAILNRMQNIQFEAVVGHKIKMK
Assay: HSD17b13 NAD(P)H-Glo biochemical assay
Conditions: for pIC50: 50 uM estradiol, 1 mM NAD+, NAD(P)H-Glo luminescence, read-out: HSD17β13 IC50
Summary of the method: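 Luminescent NAD(P)H-Glo read-out, taken after 1 hour at RT, measured cofactor reduction. Substrate and cofactor were estradiol at 50 uM and NAD+ at 1 mM final, reacted with the recombinant human enzyme for 3 hours at 37° C in 20 mM Tris pH7.4, 0.002% Tween-20, 0.02% BSA. Compound was pre-incubated with enzyme for 20 minutes at RT.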

Compound `CC1(C)CCN(c2ccc(-n3nnc4c(F)c(F)c(O)cc43)cc2)CC1` [Compound 40.2, 1-(4-(4,4-Dimethylpiperidin-1-yl)phenyl)-4,5-difluoro-1H-benzo[d][1,2,3]triazol-6-ol] has a pIC50 of 6.00 to 7.00.
Compound `CS(=O)(=O)C1CN(c2ccc(-n3nnc4cc(F)c(O)c(F)c43)cc2)C1` [Compound 20.14, 5,7-Difluoro-1-(4-(3-(methylsulfonyl)azetidin-1-yl)phenyl)-1H-benzo[d][1,2,3]triazol-6-ol] has a pIC50 of 6.00 to 7.00.
`CS(=O)(=O)C1CN(c2ccc(-n3ncc4cc(F)c(O)c(F)c43)cc2)C1` [Compound 22.1, 5,7-Difluoro-1-(4-(3-(methylsulfonyl)azetidin-1-yl)phenyl)-1H-indazol-6-ol] showed a pIC50 of 6.00 to 7.00.
`CC(C)N1CCN(c2ccc(-n3ncc4cc(F)c(O)c(F)c43)cc2)CC1` [Compound 24.2, 5,7-Difluoro-1-(4-(4-isopropylpiperazin-1-yl)phenyl)-1H-indazol-6-ol] was tested, and the pIC50 was 6.00 to 7.00.
Compound `Oc1cc2c(cnn2-c2ccc(-c3cccnc3)cc2)cc1F` [Compound 13.14, 5-Fluoro-1-(4-(pyridin-3-yl)phenyl)-1H-indazol-6-ol] has an inhibition at 30 µM (3 h, at 30 uM compound, read-out: HSD17β13 % at 30 uM) of 40%.
`Oc1c(F)cc2cnn(-c3ccc(N4CCC5(CC4)CNC5)cc3)c2c1F` [Compound 23.28, 1-(4-(2,7-Diazaspiro[3.5]nonan-7-yl)phenyl)-5,7-difluoro-1H-indazol-6-ol] gave a pIC50 of 6.00 to 7.00.
Compound `CS(=O)(=O)N1C2CC1CN(c1ccc(-n3ncc4cc(F)c(O)c(F)c43)cc1)C2` [Compound 23.15, 5,7-Difluoro-1-(4-(6-(methylsulfonyl)-3,6-diazabicyclo[3.1.1]heptan-3-yl)phenyl)-1H-indazol-6-ol] has a pIC50 of 6.00 to 7.00.
Work on `O=S1(=O)CCC2(CC1)CN(c1ccc(-n3ncc4cc(F)c(O)c(F)c43)cc1)C2` [Compound 24.11, 2-(4-(5,7-Difluoro-6-hydroxy-1H-indazol-1-yl)phenyl)-7-thia-2-azaspiro[3.5]nonane 7,7-dioxide] yielded a pIC50 of 6.00 to 7.00.
`CS(=O)(=O)N1CCN(c2ccc(-n3ncc4c(C(F)(F)F)c(F)c(O)cc43)cc2)CC1` [Compound 4.1, 5-Fluoro-1-(4-(4-(methylsulfonyl)piperazin-1-yl)phenyl)-4-(trifluoromethyl)-1H-indazol-6-ol] gave a pIC50 of 6.00 to 7.00.
Work on `[O-][S+]1CCC2(CC1)CN(c1ccc(-n3ncc4cc(F)c(O)c(F)c43)cc1)C2` [Compound 32.1, 2-(4-(5,7-Difluoro-6-hydroxy-1H-indazol-1-yl)phenyl)-7-thia-2-azaspiro[3.5]nonane 7-oxide] yielded a pIC50 of 6.00 to 7.00.
In the case of `CS(=O)(=O)NC1CN(c2ccc(-n3ncc4cc(F)c(O)cc43)cc2)C1` [Compound 21.1, N-(1-(4-(5-Fluoro-6-hydroxy-1H-indazol-1-yl)phenyl)azetidin-3-yl)methanesulfonamide], the pIC50 was 4.52 to 6.00.
Compound `Cc1cccc(-c2ccc(-n3ncc4cc(F)c(O)cc43)cc2)c1` [Compound 13.10, 5-Fluoro-1-(3′-methyl-[1,1′-biphenyl]-4-yl)-1H-indazol-6-ol] has a pIC50 of 6.00 to 7.00.
With `Oc1ccc(-c2ccc(-n3ncc4ccc(O)cc43)cc2)cc1` [Compound 1, 1-(4′-Hydroxy-[1,1′-biphenyl]-4-yl)-1H-indazol-6-ol] the pIC50 was 6.00 to 7.00.
With `CN1CCC(c2ccc(-n3ncc4cc(F)c(O)c(F)c43)cc2)CC1` [Compound 27.10, 5,7-Difluoro-1-(4-(1-methylpiperidin-4-yl)phenyl)-1H-indazol-6-ol] the pIC50 was 6.00 to 7.00.
`CC(C)n1c(=O)n(-c2ccc(N3CCC(C)(C)CC3)cc2)c2c(F)c(O)c(F)cc21` [Compound 21.13, 3-(4-(4,4-Dimethylpiperidin-1-yl)phenyl)-4,6-difluoro-5-hydroxy-1-isopropyl-1H-benzo[d]imidazol-2(3H)-one] gave a pIC50 of 6.00 to 7.00.
`Oc1cccc(-c2ccc(-n3ncc4c(F)cc(O)cc43)cc2)c1` [Compound 2.8, 4-Fluoro-1-(3′-hydroxy-[1,1′-biphenyl]-4-yl)-1H-indazol-6-ol] was tested, and the pIC50 was 4.52 to 6.00.
`Oc1cc2c(cnn2-c2ccc(-c3cccc(Cl)c3)cc2)cc1F` [Compound 13.7, 1-(3′-Chloro-[1,1′-biphenyl]-4-yl)-5-fluoro-1H-indazol-6-ol] was tested, and the pIC50 was 6.00 to 7.00.
With `CS(=O)(=O)Nc1ccc(-c2ccc(-n3ncc4cc(F)c(O)cc43)cc2)cc1` [Compound 13.34, N-(4′-(5-Fluoro-6-hydroxy-1H-indazol-1-yl)-[1,1′-biphenyl]-4-yl)methanesulfonamide] the pIC50 was 6.00 to 7.00.
For `CC1(C)CCCN(c2ccc(-n3ncc4cc(F)c(O)c(F)c43)cc2)C1` [Compound 23.19, 1-(4-(3,3-Dimethylpiperidin-1-yl)phenyl)-5,7-difluoro-1H-indazol-6-ol], the pIC50 was > 7.00.
`CS(=O)(=O)N1CCN(c2ccc(-n3ncc4ccc(O)c(F)c43)cc2)CC1` [Compound 21.11, 7-Fluoro-1-(4-(4-(methylsulfonyl)piperazin-1-yl)phenyl)-1H-indazol-6-ol] gave a pIC50 of 6.00 to 7.00.
With `Oc1c(F)cc2nnn(-c3ccc(N4CC5(CCOCC5)C4)cc3)c2c1F` [Compound 20.10, 1-(4-(7-Oxa-2-azaspiro[3.5]nonan-2-yl)phenyl)-5,7-difluoro-1H-benzo[d][1,2,3]triazol-6-ol] the pIC50 was > 7.00.
Compound `COc1cccc(-c2ccc(-n3ncc4cc(F)c(O)cc43)cc2)c1` [Compound 13.20, 5-Fluoro-1-(3′-methoxy-[1,1′-biphenyl]-4-yl)-1H-indazol-6-ol] has a pIC50 of 6.00 to 7.00.
`CS(=O)(=O)N1CC2(CCN(c3ccc(-n4ncc5cc(F)c(O)c(F)c54)cc3)CC2)C1` [Compound 20.21, 5,7-Difluoro-1-(4-(2-(methylsulfonyl)-2,7-diazaspiro[3.5]nonan-7-yl)phenyl)-1H-indazol-6-ol] gave a pIC50 of 6.00 to 7.00.
`Cn1c(=O)c2cc(F)c(O)c(F)c2n1-c1ccc(N2CCC(C)(C)CC2)cc1` [Compound 37, 1-(4-(4,4-Dimethylpiperidin-1-yl)phenyl)-5,7-difluoro-6-hydroxy-2-methyl-1H-indazol-3(2H)-one] showed a pIC50 of 6.00 to 7.00.
With `CS(=O)(=O)C1CCN(c2ccc(-n3ncc4cc(F)c(O)c(F)c43)cc2)C1` (stereo not shown) [Compound 22.2, 5,7-Difluoro-1-(4-(3-(methylsulfonyl)pyrrolidin-1-yl)phenyl)-1H-indazol-6-ol] the pIC50 was 6.00 to 7.00.
`CS(=O)(=O)N1CCN(c2ccc(-n3ncc4cc(F)c(O)nc43)cc2)CC1` [Compound 25.3, 5-Fluoro-1-(4-(4-(methylsulfonyl)piperazin-1-yl)phenyl)-1H-pyrazolo[3,4-b]pyridin-6-ol] was tested, and the inhibition at 10 µM (3 h, at 10 uM compound, read-out: HSD17β13 % at 10 uM) was 35%.
Work on `Oc1cc2c(cnn2-c2ccc(-c3ccccn3)cc2)cc1F` [Compound 13.13, 5-Fluoro-1-(4-(pyridin-2-yl)phenyl)-1H-indazol-6-ol] yielded a pIC50 of 4.52 to 6.00.
In the case of `Cc1cc(N2CCN(S(C)(=O)=O)CC2)ccc1-n1ncc2cc(F)c(O)c(F)c21` [Compound 20.2, 5,7-Difluoro-1-(2-methyl-4-(4-(methylsulfonyl)piperazin-1-yl)phenyl)-1H-indazol-6-ol], the pIC50 was 6.00 to 7.00.
In the case of `CN1CCN(c2ccc(-n3ncc4cc(F)c(O)c(F)c43)cc2)CC1` [Compound 24.1, 5,7-Difluoro-1-(4-(4-methylpiperazin-1-yl)phenyl)-1H-indazol-6-ol], the pIC50 was 6.00 to 7.00.
Compound `Oc1ccc(-c2ccc(-n3ncc4cc(F)c(O)cc43)cc2)cc1` [Compound 2.1, 5-Fluoro-1-(4′-hydroxy-[1,1′-biphenyl]-4-yl)-1H-indazol-6-ol] has a pIC50 of 6.00 to 7.00.
With `Oc1ccc(-c2ccc(-n3ncc4cc(F)c(O)c(F)c43)cc2)cc1` [Compound 13.1, 5,7-Difluoro-1-(4′-hydroxy-[1,1′-biphenyl]-4-yl)-1H-indazol-6-ol] the pIC50 was > 7.00.
